“Also recorded” adds a separate entry of the source. Positions of bridges follow the written chain, without caps; N, C: chain ends. Residues, ends and D or L forms follow the SMILES beside them. No end group written: not given here.
Columns and labels:
[1] = tested on: MDA-MB-231 breast cancer cells; settings: 24 h
Description: (§1) 10,000 HT29 or SW480 human colon cancer cells, BxPC-3 human pancreatic cancer cells, and MCF7 and MDA-MB-231 breast cancer cells were obtained from American Type Culture Collection (ATTC), Manassas, Va., and were seeded in separate 96-well plates. After treatment with various concentrations (6.25 μM, 12.5 μM, 25 μM, 50 μM, 100 μM, or 200 μM) of test peptide for 24 h, cells were stained with MTT (3-(4,5-Dimethyl-2-thiazolyl)-2,5-diphenyl-2H-tetrazolium bromide, from Sigma-Aldrich) following the instructions of the manufacturer. Before dissolving MTT in SDS, the HT29 and SW480 cells were photographed using a digital camera connected with a phase-contrast microscope. (FIG. 2A1-8, and FIG. 2B1-6). Cells that are alive convert MTT into formazan in their active mitochondria and appear dark purple; dead cells are not stained by MTT and appear colorless.
(§2) The IC50 is the concentration of the test agent that inhibits cell growth by 50% at 24 hours of exposure. IC50s were determined using the MTT assay or using the cell Titer-Glo method and following the instructions of the manufacturer ([…]). […] (Sun, Y., and Rigas, B., (2008), Cancer Res., 68(20): 8269-8277).

[2] = tested on: BxPC-3 human pancreatic cancer cells; settings: 24 h
Description: as §1, §2

[3] = tested on: MCF7 breast cancer cells; settings: 24 h
Description: as §1, §2

[4] = tested on: HT29, SW480, BxPC3, MCF7, and MDA-MB-231 cell lines; format: cell-based, human; settings: 24 h
Text: (FIG. 2A1-8, and FIG. 2B1-6).

[5] = tested on: SW480 human colon cancer cells; experiment: Flow cytometry forward/side scatter, proportion of dead cells, SW480; format: cell-based
Description: (§3) SW480 human colon cancer cells and MCF7 breast cancer cells were grown following the instructions of American Type Culture Collection (ATCC, Monassas, Va.). The cells were treated with the test peptides (YJB01, YJB05, or YJB06) for 24 hrs at concentrations ranging from 0 μM, to 200 μM and subjected to flow cytometric analysis following standard protocols.
(§4) SW480 human colon cancer cells and MCF7 breast cancer cells were grown following the instructions of American Type Culture Collection (ATCC, Monassas, Va.). The cells were treated with the test peptides for 24 hrs at concentrations ranging from 0 μM, to 200 μM and subjected to flow cytometry analysis following standard protocols. […] The circumscribed (gated, outlined) areas in the figure indicate dead cells; dead cells generally have higher density (side scatter) and smaller size (forward scatter) than living cells.

[6] = tested on: SW480 human colon cancer cells; experiment: Annexin V-FITC flow cytometry for apoptotic cells, SW480; format: cell-based; settings: 24 hrs, 0 μM to 200 μM
Description: (§5) SW480 human colon cancer cells and MCF7 breast cancer cells were grown following the instructions of American Type Culture Collection (ATCC, Monassas, Va.). The cells were treated with the test peptides (YJB01, YJB05, or YJB06) for 24 hrs at concentrations ranging from 0 μM, to 200 μM. After treatment, cells were trypsinized and stained with Annexin V-FITC (100× dilution) for 15 minutes. Annexin V-FITC fluorescence intensities were analyzed by FACSCaliber (BD Bioscience) following standard protocols. Annexin V (+) cells are apoptotic cells.
When cells undergo apoptosis, the inner membrane phospholipid, phosphotidylserine (PS), flips to the outer membrane and can be recognized by the […]. The green FITC fluorescence can be determined by flow cytometry and thus Annexin V (+) cells are apoptotic cells.
as §5, with “In this study, SW480” for “SW480”, “human” for “human colon”, “treatment” for “treatment,”, “protocols.” for “protocols. Annexin V (+) cells are apoptotic cells.”

[7] = tested on: MCF-7 human breast cancer cells; experiment: Flow cytometry forward/side scatter, proportion of dead cells, MCF7; format: cell-based; settings: 200 μM, 24 hr
Description: as §3, §4

[8] = tested on: peroxiredoxin 1; experiment: Oxidized peroxiredoxin 1 (Prx-O3) immunoblot in SW480 cells; format: cell-based, human; settings: 1 h, YJB01 20 μM and 100 μM, YJB05 100 μM
Description: (§6) The oxidized peroxiredoxin 1 (sulphonic-peroxiredoxin, Prx-O3) was detected by using the specific anti-Prx-O3 antibody. Briefly, after SW480 cells were treated with either no peptide, with YBJ01 (at 20 μM and 100 μM), or with YJB05 (at 100 μM) for 1 h, total cell lysates were collected and separated on the SDS-PAGE gel. The gel was electroblotted onto a nitrocellulose membrane and probed with anti-Prx-O3, followed by HRP-conjugated secondary antibody. Bands corresponding to sulphonic-peroxiredoxin were visualized by ECL
as §6, with “anti-Prx-O3 antibody” for “anti-Prx-O3 antibody.”, “with YBJ05” for “with YJB05”

[9] = target: T1, thioredoxin 1 (Homo sapiens, UniProt P10599); experiment: Thioredoxin 1 redox state, native PAGE immunoblot in SW480 cells; format: cell-based; settings: YJB01 20 μM and 100 μM, YJB05 100 μM
T1 construct: endogenous in cells; host or cells: SW480 human colon cancer cells
T1 sequence (P10599 1-105): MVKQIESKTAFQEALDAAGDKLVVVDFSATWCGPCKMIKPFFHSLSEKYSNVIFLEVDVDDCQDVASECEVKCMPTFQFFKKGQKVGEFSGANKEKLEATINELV
Description: (§7) SW480 human colon cancer cells were grown following the instructions of American Type Culture Collection (ATCC, Monassas, Va.). Cells were treated with either no peptide, with YBJ01 (at 20 μM and 100 μM), or with YBJ05 (at 100 μM). 10^6 cells were lysed in 6 mol/L guanidinium chloride, 50 mmol/L Tris/HCL (pH 8.3), 3 mmol/L EDTA, and 0.5% Triton-X-100 containing 50 mmol/L iodoacetic acid. After 30 min at 37° C., the excess idoacetic acid was removed using Microspin G-25 columns (GE Healthcare Life Sciences). Oxidized and reduced thioredxoin was separated by native PAGE. The gel was electroblotted onto a nitrocellulose membrane and probed with thioredoxin antibodies, followed by HRP-conjugated secondary antibody. Bands corresponding to thioredoxin were visualized by ECL.
as §7, with “10^6 cells from each sample were lysed” for “10^6 cells were lysed”, “native PAGE. […]” for “native PAGE. The gel was electroblotted onto a nitrocellulose membrane and probed with thioredoxin antibodies, followed by HRP-conjugated secondary antibody. Bands corresponding to thioredoxin were visualized by ECL.”

| Compound | IC50 [1] [µM] | IC50 [2] [µM] | IC50 [3] [µM] | IC50 [4] [µM] | cell killing effect, SW480 ([5]; 24 hrs, 0 μM to 200 μM) | apoptosis, Annexin V (+) cells, SW480 [6] | dead cells, MCF7 [7] [%] | induction of the oxidized form of peroxiredoxin 1 [8] | induction of the oxidized form of thioredoxin 1 [9] | dead cells, SW480 ([5]; 200 μM, 24 hr) [%] |
| --- | --- | --- | --- | --- | --- | --- | --- | --- | --- | --- |
| CC[C@H](C)[C@H](NC(=O)[C@H](CCCCN)NC(=O)[C@@H](NC(=O)[C@H](CCC(N)=O)NC(=O)[C@H](CCCNC(=N)N)NC(=O)[C@@H]1CCCN1C(=O)[C@H](CCCNC(=N)N)NC(=O)[C@@H]1CSSC[C@H](NC(=O)[C@@H](N)[C@@H](C)O)C(=O)N2CCC[C@H]2C(=O)N[C@@H](Cc2ccc(O)cc2)C(=O)N1)[C@@H](C)CC)C(=O)N[C@@H](Cc1c[nH]c2ccccc12)C(=O)N[C@@H](Cc1ccccc1)C(=O)N[C@@H](CCC(N)=O)C(=O)N[C@@H](CC(N)=O)C(=O)N[C@@H](CCCNC(=N)N)C(=O)N[C@@H](CCCNC(=N)N)C(=O)N[C@@H](CCSC)C(=O)N[C@@H](CCCCN)C(=O)N[C@@H](Cc1c[nH]c2ccccc12)C(=O)N[C@@H](CCCCN)C(=O)N[C@@H](CCCCN)C(=O)O [YJB03] | 309 | 153 | 21 |  |  |  |  |  |  |  |
| CC[C@H](C)[C@H](NC(=O)[C@H](CCCCN)NC(=O)[C@@H](NC(=O)[C@H](CCC(N)=O)NC(=O)[C@H](CCCNC(=N)N)NC(=O)[C@@H]1CCCN1C(=O)[C@H](C)NC(=O)[C@@H]1CCCN1C(=O)[C@@H]1CSSC[C@H](NC(=O)[C@@H](N)C(C)C)C(=O)N2CCC[C@H]2C(=O)N[C@@H](C(C)C)C(=O)N1)[C@@H](C)CC)C(=O)N[C@@H](Cc1c[nH]c2ccccc12)C(=O)N[C@@H](Cc1ccccc1)C(=O)N[C@@H](CCC(N)=O)C(=O)N[C@@H](CC(N)=O)C(=O)N[C@@H](CCCNC(=N)N)C(=O)N[C@@H](CCCNC(=N)N)C(=O)N[C@@H](CCSC)C(=O)N[C@@H](CCCCN)C(=O)N[C@@H](Cc1c[nH]c2ccccc12)C(=O)N[C@@H](CCCCN)C(=O)N[C@@H](CCCCN)C(=O)O [YJB04] (H-VCPVCPAPRQIKIWFQNRRMKWKK-OH; disulfide 2-5; N-terminus and C-terminus assumed) | 195 | 123 | 25 |  |  |  |  |  |  |  |
| C[C@H](N)C(=O)N[C@H](C(=O)N[C@@H](Cc1c[nH]c2ccccc12)C(=O)N[C@H]1CSSC[C@@H](C(=O)O)NC(=O)[C@@H]2CCCN2C(=O)CNC1=O)[C@@H](C)O [YJB06] (H-ATWCGPC-OH; disulfide 4-7 (inferred); N-terminus and C-terminus assumed) |  |  |  | > 2000 | failed to kill SW480 colon cancer cells |  |  |  |  |  |
| ATWAGPAKPRQIKIWFQNRRMKWKK [YJB05, reference compound] |  |  |  | > 2000 |  | ineffective | 12.52 | fails to induce oxidation | failed to induce oxidation of thioredoxin 1; also recorded: fails to induce oxidation | 21.62 |
